From the NIST ThermoML archive (doi:10.1016/j.jct.2006.11.003)

Assay: xn = mol fraction of the nth substance listed
Settings: 101 kPa, Liquid

Cc1ccccc1C [1,2-dimethylbenzene] + CN1CCCC1=O
Settings	mass density [kg/m3]
293.15 K, x1 = 0.0478	1024.81
293.15 K, x1 = 0.0865	1018.48
293.15 K, x1 = 0.1584	1006.82
293.15 K, x1 = 0.2266	995.89
293.15 K, x1 = 0.2714	988.75
293.15 K, x1 = 0.3393	978.06
293.15 K, x1 = 0.387	970.61
293.15 K, x1 = 0.4321	963.63
293.15 K, x1 = 0.5011	953.04
293.15 K, x1 = 0.5668	943.08
293.15 K, x1 = 0.6297	933.64
293.15 K, x1 = 0.7099	921.74
293.15 K, x1 = 0.7859	910.6
293.15 K, x1 = 0.8577	900.18
293.15 K, x1 = 0.9388	888.55
293.15 K, x1 = 1	879.84
303.15 K, x1 = 0.0565	1014.2
303.15 K, x1 = 0.1122	1005.19
303.15 K, x1 = 0.1895	992.78
303.15 K, x1 = 0.2467	983.7
303.15 K, x1 = 0.3239	971.56
303.15 K, x1 = 0.3967	960.27
303.15 K, x1 = 0.4565	951.08
303.15 K, x1 = 0.5127	942.54
303.15 K, x1 = 0.5655	934.58
303.15 K, x1 = 0.6251	925.68
303.15 K, x1 = 0.7076	913.5
303.15 K, x1 = 0.7626	905.46
303.15 K, x1 = 0.8498	892.86
303.15 K, x1 = 0.9049	884.97
303.15 K, x1 = 0.9639	876.58
303.15 K, x1 = 1	871.48
313.15 K, x1 = 0.0485	1006.39
313.15 K, x1 = 0.0922	999.35
313.15 K, x1 = 0.1795	985.39
313.15 K, x1 = 0.2368	976.31
313.15 K, x1 = 0.3036	965.84
313.15 K, x1 = 0.3679	955.86
313.15 K, x1 = 0.4285	946.56
313.15 K, x1 = 0.4894	937.31
313.15 K, x1 = 0.5375	930.05
313.15 K, x1 = 0.6034	920.22
313.15 K, x1 = 0.673	909.94
313.15 K, x1 = 0.7355	900.8
313.15 K, x1 = 0.8196	888.65
313.15 K, x1 = 0.8767	880.48
313.15 K, x1 = 0.9289	873.06
313.15 K, x1 = 1	863.03
323.15 K, x1 = 0.0478	997.82
323.15 K, x1 = 0.1014	989.16
323.15 K, x1 = 0.1603	979.74
323.15 K, x1 = 0.2364	967.69
323.15 K, x1 = 0.3026	957.34
323.15 K, x1 = 0.3575	948.83
323.15 K, x1 = 0.4244	938.56
323.15 K, x1 = 0.4915	928.37
323.15 K, x1 = 0.5582	918.35
323.15 K, x1 = 0.6217	908.9
323.15 K, x1 = 0.6735	901.26
323.15 K, x1 = 0.7536	889.56
323.15 K, x1 = 0.8206	879.9
323.15 K, x1 = 0.8728	872.43
323.15 K, x1 = 0.9511	861.36
323.15 K, x1 = 1	854.51
333.15 K, x1 = 0.0579	986.94
333.15 K, x1 = 0.1023	979.83
333.15 K, x1 = 0.1814	967.25
333.15 K, x1 = 0.2556	955.59
333.15 K, x1 = 0.3135	946.59
333.15 K, x1 = 0.3815	936.11
333.15 K, x1 = 0.4478	926.02
333.15 K, x1 = 0.5014	917.94
333.15 K, x1 = 0.5654	908.37
333.15 K, x1 = 0.6122	901.45
333.15 K, x1 = 0.6632	893.96
333.15 K, x1 = 0.8105	872.67
333.15 K, x1 = 0.8744	863.57
333.15 K, x1 = 0.9214	856.93
333.15 K, x1 = 0.9632	851.06
333.15 K, x1 = 1	845.91
343.15 K, x1 = 0.0462	979.94
343.15 K, x1 = 0.1045	970.59
343.15 K, x1 = 0.1614	961.55
343.15 K, x1 = 0.2153	953.05
343.15 K, x1 = 0.2864	941.94
343.15 K, x1 = 0.3576	930.94
343.15 K, x1 = 0.4102	922.9
343.15 K, x1 = 0.4828	911.91
343.15 K, x1 = 0.5477	902.2
343.15 K, x1 = 0.6065	893.5
343.15 K, x1 = 0.6735	883.68
343.15 K, x1 = 0.7533	872.13
343.15 K, x1 = 0.8095	864.07
343.15 K, x1 = 0.8745	854.83
343.15 K, x1 = 0.9407	845.51
343.15 K, x1 = 1	837.23
353.15 K, x1 = 0.0475	970.95
353.15 K, x1 = 0.1037	961.94
353.15 K, x1 = 0.1582	953.26
353.15 K, x1 = 0.2167	944.03
353.15 K, x1 = 0.2633	936.72
353.15 K, x1 = 0.34	924.83
353.15 K, x1 = 0.4067	914.62
353.15 K, x1 = 0.4529	907.6
353.15 K, x1 = 0.5184	897.76
353.15 K, x1 = 0.5689	890.24
353.15 K, x1 = 0.6322	880.91
353.15 K, x1 = 0.7097	869.62
353.15 K, x1 = 0.7859	858.64
353.15 K, x1 = 0.8511	849.36
353.15 K, x1 = 0.9354	837.48
353.15 K, x1 = 1	828.47
